Laboratory results published in US20250228807A1, “TRANEXAMIC CLASS ARGININE AND HISTIDINE MIMICS AS THERAPEUTIC AGENTS” (Tranexamic Technologies, LLC, priority 2022, published 2025).
“Also recorded” adds a separate entry of the source.

Key:
[1] = Aqueous solubility / preparation of solutions in PBS buffer; format: physicochemical; conditions: for solubility: concentration of solution: PBS buffer
Experimental: Chemical synthesis and solubility. TA was purchased from commercial sources and TA-NAc was prepared straightforwardly through acetylation of TA based on standard practices.
TA-R1-R4 were accessible from their corresponding amino acids through treatment with methylisothiourea hemisulfate. […] Esterification of TA-R1 to produce TA-R1OMe, a novel compound, improved the solubility for preparation of a 2% (w/v) solution in phosphate buffered saline (PBS) buffer (pH=7.4) and biological testing.
The requisite amino acids for synthesis of TA-R3/R4 required multistep synthetic approaches. Briefly, the preparation of TA-R3, a novel compound, began from cis-1,3-cyclohexanedicarboxylic acid and proceeded through eight sequential synthetic steps to afford the product as its HCl salt. Protection/deprotection of the amino group was required to facilitate purification, as was a stepwise oxidation sequence from the alcohol to the carboxylic acid. […] The approach to TA-R4, a known compound, required one additional step to produce the starting dicarboxylic acid, in this case through oxidative cleavage of norbornene. […] All the final compounds were fully characterized by ^1H nuclear magnetic resonance (NMR), ^13C NMR, and high-resolution electrospray ionization mass spectrometry (HRMS-ESI).

[2] = test system: MDA-MB 468 triple-negative breast cancer cells; experiment: MTT cell viability assay; format: cell-based; conditions: MDA-MB-468, 72 h, relative to TA
Experimental: Effects of compounds on cell viability. MDA-MB 468 triple-negative breast cancer cells were plated at 6,250 cells per well in a 96-well plate and incubated overnight at 37° C. Cell viability was evaluated using the MTT (3-(4,5-dimethylthiazol-2-yl)-2,5-diphenyltetrazolium bromide) assay carried out according to manufacturer's instructions.

[3] = test system: programmed death-ligand 1 (PD-L1); experiment: Immunoblot analysis of treated MDA-MB-468 cells: PD-L1 expression; format: cell-based; conditions: high (2%) concentration
Source text: (§1) Biochemical evaluation of treatment of breast cancer cells with TA-R2. […] This is important because PD-L1 expression in cancer cells blocks T-cell-based immunity. So, TA-R2 would be predicted to increase anticancer immunity in immunocompetent systems. Histone acetyltransferase (HAT) enzyme assays were used to determine if TA-R2 inhibits p300 activity. […] This fits with the hypothesis that TAs act in part by inhibiting acetyltransferases such as p300/CPB that acetylate histones. No acetylation is observed in controls upon omission of H3/p300 or acetyl coenzyme A (Acetyl CoA).

[4] = target: T1, recombinant p300 (Homo sapiens, UniProt Q09472); experiment: p300 histone acetyltransferase (HAT) enzyme assay; format: biochemical; conditions: for p300 acetylation of Histone 3 (H3) in vitro: recombinant p300, Histone H3, tritiated acetyl CoA, TA at 2%
T1 construct: purchased
Experimental: Inhibition of p300 acetyltransferase activity. p300 enzyme assays were carried out with TA, TA-NAc, and TA-R2 using commercially available recombinant p300, and recombinant, commercial Histone H3 and tritiated acetyl CoA as the substrates. P300 assays were performed in the presence of increasing concentrations of each compound and acetylation of […] was evaluated by scintillation counting of Histone H3 adsorbed to 1 cm×1 cm nitrocellulose squares, after extensive washing of the nitrocellulose squares with 20% trichloroacetic acid.
as §1

[5] = test system: MYC oncogene; experiment: Immunoblot analysis of treated MDA-MB-468 cells: MYC expression; format: cell-based
Source text: as §1

T1 sequence (Q09472 whole entry, species assumed): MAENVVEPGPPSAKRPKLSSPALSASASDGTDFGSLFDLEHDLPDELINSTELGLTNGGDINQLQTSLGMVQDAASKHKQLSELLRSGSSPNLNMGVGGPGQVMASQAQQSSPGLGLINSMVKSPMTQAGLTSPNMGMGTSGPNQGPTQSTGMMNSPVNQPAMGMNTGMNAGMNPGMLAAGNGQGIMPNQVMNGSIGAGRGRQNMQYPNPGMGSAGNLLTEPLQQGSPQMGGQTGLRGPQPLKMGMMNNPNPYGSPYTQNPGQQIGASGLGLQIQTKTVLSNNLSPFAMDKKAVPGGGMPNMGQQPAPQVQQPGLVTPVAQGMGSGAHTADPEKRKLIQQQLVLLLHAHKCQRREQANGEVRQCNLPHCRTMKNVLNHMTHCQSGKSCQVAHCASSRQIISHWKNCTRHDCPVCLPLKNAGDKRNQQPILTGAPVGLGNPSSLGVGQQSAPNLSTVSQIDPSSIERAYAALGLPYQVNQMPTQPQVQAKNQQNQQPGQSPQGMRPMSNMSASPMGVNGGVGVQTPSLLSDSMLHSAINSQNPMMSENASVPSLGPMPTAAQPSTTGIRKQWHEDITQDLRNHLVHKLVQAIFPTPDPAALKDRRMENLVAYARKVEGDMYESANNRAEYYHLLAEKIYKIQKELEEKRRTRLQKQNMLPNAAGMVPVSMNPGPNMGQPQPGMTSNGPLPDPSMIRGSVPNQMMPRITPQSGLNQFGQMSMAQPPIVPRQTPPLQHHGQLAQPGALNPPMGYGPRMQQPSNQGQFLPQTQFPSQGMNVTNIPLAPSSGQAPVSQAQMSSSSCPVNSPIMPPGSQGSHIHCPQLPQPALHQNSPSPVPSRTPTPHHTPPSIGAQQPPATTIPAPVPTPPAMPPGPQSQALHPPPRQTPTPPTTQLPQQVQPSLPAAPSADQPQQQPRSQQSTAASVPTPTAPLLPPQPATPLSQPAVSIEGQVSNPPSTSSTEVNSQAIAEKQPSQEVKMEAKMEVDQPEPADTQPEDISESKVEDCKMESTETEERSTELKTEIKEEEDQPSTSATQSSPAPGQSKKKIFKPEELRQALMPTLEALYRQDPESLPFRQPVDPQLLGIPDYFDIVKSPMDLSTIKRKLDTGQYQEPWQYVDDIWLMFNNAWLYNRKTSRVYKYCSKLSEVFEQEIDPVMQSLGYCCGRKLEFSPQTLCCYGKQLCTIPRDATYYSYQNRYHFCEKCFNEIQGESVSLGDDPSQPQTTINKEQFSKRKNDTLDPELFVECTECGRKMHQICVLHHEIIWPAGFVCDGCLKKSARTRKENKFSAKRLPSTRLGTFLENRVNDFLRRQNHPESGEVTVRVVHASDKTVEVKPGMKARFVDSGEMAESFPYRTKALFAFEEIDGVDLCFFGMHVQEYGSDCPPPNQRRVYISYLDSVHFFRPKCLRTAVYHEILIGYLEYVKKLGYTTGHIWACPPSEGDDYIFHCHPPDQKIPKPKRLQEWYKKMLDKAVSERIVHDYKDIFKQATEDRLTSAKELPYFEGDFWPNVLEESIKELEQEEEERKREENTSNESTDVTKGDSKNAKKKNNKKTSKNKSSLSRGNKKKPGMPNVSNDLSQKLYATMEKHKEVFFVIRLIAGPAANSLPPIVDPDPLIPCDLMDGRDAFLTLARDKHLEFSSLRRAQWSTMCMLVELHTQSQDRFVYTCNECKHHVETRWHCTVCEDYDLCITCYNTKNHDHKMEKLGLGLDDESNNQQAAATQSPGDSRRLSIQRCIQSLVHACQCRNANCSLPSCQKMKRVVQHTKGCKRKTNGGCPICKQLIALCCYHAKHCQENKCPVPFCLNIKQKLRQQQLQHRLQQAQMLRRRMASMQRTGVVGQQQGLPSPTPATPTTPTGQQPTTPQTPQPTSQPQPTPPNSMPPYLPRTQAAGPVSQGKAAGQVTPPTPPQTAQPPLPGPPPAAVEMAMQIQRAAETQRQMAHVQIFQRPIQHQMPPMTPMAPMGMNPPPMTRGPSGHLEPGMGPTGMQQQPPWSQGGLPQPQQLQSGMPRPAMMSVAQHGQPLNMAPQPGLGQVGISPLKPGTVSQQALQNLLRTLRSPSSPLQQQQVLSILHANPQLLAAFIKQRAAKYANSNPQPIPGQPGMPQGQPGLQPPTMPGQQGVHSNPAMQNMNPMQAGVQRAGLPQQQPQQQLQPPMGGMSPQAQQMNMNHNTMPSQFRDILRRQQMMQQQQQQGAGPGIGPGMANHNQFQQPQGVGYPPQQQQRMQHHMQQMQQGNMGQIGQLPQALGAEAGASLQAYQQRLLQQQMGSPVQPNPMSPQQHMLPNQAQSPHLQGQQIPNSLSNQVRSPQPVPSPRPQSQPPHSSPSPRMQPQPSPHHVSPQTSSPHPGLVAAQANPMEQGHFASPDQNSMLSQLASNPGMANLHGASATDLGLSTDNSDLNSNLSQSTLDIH

| aqueous solubility (in words) [1] | solubility: concentration of solution [1] | Compound | fold lower IC50 than TA (cytotoxicity) [2] | PD-L1 expression [3] | also measured |
| --- | --- | --- | --- | --- | --- |
| poor aqueous solubility | – | N=C(N)NC[C@H]1CC[C@H](C(=O)O)CC1 [TA-R1, trans-4-guanidinomethylcyclohexanecarboxylic acid] | – | – | – |
| – | ca. 2% | COC(=O)[C@@H]1CCC[C@H](CNC(=N)N)C1.Cl (relative stereo) [TA-R3-OMe, cis-amino(((3 (methoxycarbonyl)cyclohexyl)methyl)amino)methaniminium chloride] | approximately 10 fold | – | – |
| – | – | NC[C@H]1CC[C@H](C(=O)O)CC1 [TA, Tranexamic acid, reference compound] | – | do not | p300 acetylation of Histone 3 (H3) in vitro [4]: does not affect |
| – | – | COC(=O)[C@H]1CC[C@H](CNC(=N)N)CC1.Cl [TA-R1-OMe, amino((((1r,4r)-4-(methoxycarbonyl)cyclohexyl)methyl)amino)methaniminium chloride] | approximately 10 fold | – | solubility: concentration of solution prepared ([1]; phosphate buffered saline (PBS) buffer (pH=7.4)): 2 % (w/v) |
| better aqueous solubility | – | CC(=O)NCC1CCC(C(=O)[O-])CC1.[Na+] (stereo not drawn) [TA-NAc, reference compound] | – | do not | – |
| sufficient solubility | ca. 2% | N=C(N)NC[C@@H]1CC[C@H](C(=O)O)C1 (relative stereo) [TA-R4, cis-3-(guanidinomethyl)cyclopentane-1-carboxylic acid] | – | – | – |
| good aqueous solubility | – | Cl.N=C(N)N[C@H]1CC[C@H](C(=O)O)CC1 [TA-R2, amino(((1r,4r)-4-carboxycyclohexyl)amino)methaniminium chloride] | – | decreases programmed death-ligand 1 (PD-L1) | expression of the MYC oncogene at 0.5% ([5]; 0.5%): downregulated MYC; expression of the MYC oncogene at 2% (w/v) ([5]; 2% (w/v), compared with TA): downregulated expression of the MYC oncogene; expression of the MYC oncogene ([5]; compared with TA and TA-NAc at the same concentrations): decreases expression of the MYC oncogene to a greater extent than TA or NAc-TA; histone acetylation at 2% (w/v) compared with TA ([4]; 2% (w/v)): reduced histone acetylation to a greater extent than TA; p300 acetylation of Histone 3 (H3) in vitro [4]: decreases histone acetylation more strongly than the other two compounds |

| Compound | aqueous solubility (in words) [1] | solubility: concentration of solution [1] | fold lower IC50 than TA (cytotoxicity) [2] | PD-L1 expression [3] | also measured |
| --- | --- | --- | --- | --- | --- |
| Cl.N=C(N)NC[C@H]1CCC[C@@H](C(=O)O)C1 (relative stereo) [TA-R3, cis-amino(((3-carboxycyclohexyl)methyl)amino)methaniminium chloride] | insolubility; also recorded: poor aqueous solubility | ~0.1% | approximately 10 fold | – | – |
